This assay deals with T1, Dihydrofolate reductase (Gallus gallus, UniProt P00378).
T1 sequence (P00378 whole entry): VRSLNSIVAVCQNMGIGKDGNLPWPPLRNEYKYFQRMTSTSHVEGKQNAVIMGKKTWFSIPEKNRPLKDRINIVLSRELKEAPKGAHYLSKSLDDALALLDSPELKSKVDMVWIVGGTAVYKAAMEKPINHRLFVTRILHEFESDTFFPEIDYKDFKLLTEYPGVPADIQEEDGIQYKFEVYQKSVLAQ
Nature of the assay: Evaluated for the inhibition of chicken liver Dihydrofolate reductase by using standard enzyme assay. As to conditions: read-out: I50.
`CN(Cc1cnc2nc(N)nc(N)c2n1)c1ccc(C(=O)NC(CCCCNC(=O)OCc2ccccc2)C(=O)O)cc1` (stereo unspecified): the IC50 is 380 nM.
`CN(Cc1cnc2nc(N)nc(N)c2n1)c1ccc(C(=O)NC(CCCNC(=O)OCc2ccccc2)C(=O)OC(C)(C)C)cc1` (stereo unspecified): the IC50 was found to be 3100 nM.
To `CN(Cc1cnc2nc(N)nc(N)c2n1)c1ccc(C(=O)NC(CCCCNC(=O)OCc2ccccc2)C(=O)OC(C)(C)C)cc1` (stereo unspecified) belongs 950 nM.
To `CN(Cc1cnc2nc(N)nc(N)c2n1)c1ccc(C(=O)NC(CCCNC(=O)OCc2ccccc2)C(=O)O)cc1` (stereo unspecified) belongs 330 nM.
`CN(Cc1cnc2nc(N)nc(N)c2n1)c1ccc(C(=O)NC(CCCN)C(=O)O)cc1` (stereo unspecified): the IC50 was determined as 250 nM.
To `CN(Cc1cnc2nc(N)nc(N)c2n1)c1ccc(C(=O)NC(CCCCN)C(=O)O)cc1` (stereo unspecified) belongs 130 nM.
